Our source for the Ki and IC50 values is ChEMBL document CHEMBL1135518 (J Med Chem, 2002).

Some results are limits rather than exact numbers.

The target in one experiment is D(3) dopamine receptor (Homo sapiens, UniProt P35462). Put plainly: The binding affinity at the Dopamine receptor D3 determined using [3H]spiperone.
Experiment [1] deals with T1, 5-hydroxytryptamine receptor 2C (Rattus norvegicus, UniProt P08909).
T1 sequence (P08909 whole entry): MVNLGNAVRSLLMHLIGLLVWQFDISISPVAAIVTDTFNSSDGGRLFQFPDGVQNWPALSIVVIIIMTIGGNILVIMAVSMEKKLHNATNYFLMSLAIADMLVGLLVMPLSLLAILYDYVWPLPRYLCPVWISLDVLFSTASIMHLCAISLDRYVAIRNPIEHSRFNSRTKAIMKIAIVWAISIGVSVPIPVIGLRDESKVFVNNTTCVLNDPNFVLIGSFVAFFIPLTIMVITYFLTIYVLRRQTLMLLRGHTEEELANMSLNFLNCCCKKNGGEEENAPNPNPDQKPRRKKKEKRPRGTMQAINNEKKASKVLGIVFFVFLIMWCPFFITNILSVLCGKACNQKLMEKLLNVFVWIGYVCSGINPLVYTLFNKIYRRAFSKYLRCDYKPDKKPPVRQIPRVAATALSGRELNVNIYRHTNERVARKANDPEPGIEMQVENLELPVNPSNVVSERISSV
In words: The binding affinity at 5-hydroxytryptamine 2C receptor was determined using [3H]mesulergine.

The target in experiment [2] is Norepinephrine transporter (Rattus norvegicus, UniProt Q9WTR4). Put plainly: The binding affinity at the Norepinephrine transporter reuptake sites determined using competition binding assay.
Sequence of Norepinephrine transporter (Q9WTR4 whole entry): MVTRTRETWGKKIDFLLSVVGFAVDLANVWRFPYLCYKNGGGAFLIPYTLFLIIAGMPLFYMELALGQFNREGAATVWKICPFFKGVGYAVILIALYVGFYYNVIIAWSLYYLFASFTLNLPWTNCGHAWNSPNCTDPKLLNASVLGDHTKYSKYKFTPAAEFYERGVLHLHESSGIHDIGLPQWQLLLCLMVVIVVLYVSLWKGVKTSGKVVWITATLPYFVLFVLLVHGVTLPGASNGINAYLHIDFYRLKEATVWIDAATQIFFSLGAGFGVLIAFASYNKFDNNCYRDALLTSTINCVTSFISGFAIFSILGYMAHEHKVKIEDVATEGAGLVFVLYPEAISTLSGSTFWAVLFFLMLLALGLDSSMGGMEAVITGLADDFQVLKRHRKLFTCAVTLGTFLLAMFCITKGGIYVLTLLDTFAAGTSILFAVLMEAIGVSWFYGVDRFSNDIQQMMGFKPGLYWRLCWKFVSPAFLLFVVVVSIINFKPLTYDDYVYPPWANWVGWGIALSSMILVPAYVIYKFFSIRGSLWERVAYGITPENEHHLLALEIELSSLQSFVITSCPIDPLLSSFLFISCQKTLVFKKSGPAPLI
Experiment [3] deals with Sodium-dependent serotonin transporter (Rattus norvegicus, UniProt P31652). In words: The binding affinity at the 5-HT reuptake sites determined using competition binding assay.
Sequence of Sodium-dependent serotonin transporter (P31652 whole entry): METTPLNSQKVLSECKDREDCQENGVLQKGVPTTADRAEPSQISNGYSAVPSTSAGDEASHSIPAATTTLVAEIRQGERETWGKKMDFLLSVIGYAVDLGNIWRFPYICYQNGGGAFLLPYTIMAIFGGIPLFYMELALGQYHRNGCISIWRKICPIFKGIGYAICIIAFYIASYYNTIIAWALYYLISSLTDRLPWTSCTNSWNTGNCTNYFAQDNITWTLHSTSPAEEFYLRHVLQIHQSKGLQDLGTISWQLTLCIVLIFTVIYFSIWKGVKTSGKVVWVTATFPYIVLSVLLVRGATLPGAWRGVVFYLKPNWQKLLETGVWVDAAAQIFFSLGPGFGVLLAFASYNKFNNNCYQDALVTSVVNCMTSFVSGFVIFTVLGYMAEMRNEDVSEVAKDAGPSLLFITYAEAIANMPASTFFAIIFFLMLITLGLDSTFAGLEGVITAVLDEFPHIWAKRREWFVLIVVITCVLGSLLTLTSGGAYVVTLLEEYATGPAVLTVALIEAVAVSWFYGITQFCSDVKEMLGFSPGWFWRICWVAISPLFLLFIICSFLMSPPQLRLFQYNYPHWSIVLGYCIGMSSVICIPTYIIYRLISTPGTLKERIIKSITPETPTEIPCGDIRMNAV
The target in experiment [4] is T2, 5-hydroxytryptamine receptor 1A (Homo sapiens, UniProt P08908).
T2 sequence (P08908 whole entry): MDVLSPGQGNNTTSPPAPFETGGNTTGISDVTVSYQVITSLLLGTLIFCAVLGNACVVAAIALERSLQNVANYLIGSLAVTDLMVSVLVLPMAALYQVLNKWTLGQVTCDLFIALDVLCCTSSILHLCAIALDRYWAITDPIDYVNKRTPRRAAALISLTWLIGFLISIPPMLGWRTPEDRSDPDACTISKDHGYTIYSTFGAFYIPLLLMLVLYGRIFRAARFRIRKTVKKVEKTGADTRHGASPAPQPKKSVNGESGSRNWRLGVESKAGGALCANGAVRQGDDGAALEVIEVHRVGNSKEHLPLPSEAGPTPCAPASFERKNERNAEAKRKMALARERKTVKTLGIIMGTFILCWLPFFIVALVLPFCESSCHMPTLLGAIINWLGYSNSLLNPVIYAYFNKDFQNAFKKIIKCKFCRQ
Put plainly: The binding affinity at the 5-hydroxytryptamine 1A receptor determined using [3H]5-CT.

Experiment [5] deals with T3, Adrenergic receptor alpha-1 (Rattus norvegicus, UniProt P15823+P23944+P43140).
T3 sequence (P15823 whole entry): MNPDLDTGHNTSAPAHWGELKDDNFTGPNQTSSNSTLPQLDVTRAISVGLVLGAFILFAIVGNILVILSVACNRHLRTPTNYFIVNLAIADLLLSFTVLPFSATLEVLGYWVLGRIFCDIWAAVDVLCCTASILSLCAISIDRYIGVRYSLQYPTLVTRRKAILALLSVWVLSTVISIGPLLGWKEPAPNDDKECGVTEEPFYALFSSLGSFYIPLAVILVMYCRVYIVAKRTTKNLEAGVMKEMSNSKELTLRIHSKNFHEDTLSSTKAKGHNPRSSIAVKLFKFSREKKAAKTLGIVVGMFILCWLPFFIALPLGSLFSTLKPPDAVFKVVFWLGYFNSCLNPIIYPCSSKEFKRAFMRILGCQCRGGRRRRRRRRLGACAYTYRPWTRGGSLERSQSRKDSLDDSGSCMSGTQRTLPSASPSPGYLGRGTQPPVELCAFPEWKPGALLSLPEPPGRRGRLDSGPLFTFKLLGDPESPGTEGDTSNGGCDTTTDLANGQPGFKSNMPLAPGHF
T3 sequence (P23944 whole entry): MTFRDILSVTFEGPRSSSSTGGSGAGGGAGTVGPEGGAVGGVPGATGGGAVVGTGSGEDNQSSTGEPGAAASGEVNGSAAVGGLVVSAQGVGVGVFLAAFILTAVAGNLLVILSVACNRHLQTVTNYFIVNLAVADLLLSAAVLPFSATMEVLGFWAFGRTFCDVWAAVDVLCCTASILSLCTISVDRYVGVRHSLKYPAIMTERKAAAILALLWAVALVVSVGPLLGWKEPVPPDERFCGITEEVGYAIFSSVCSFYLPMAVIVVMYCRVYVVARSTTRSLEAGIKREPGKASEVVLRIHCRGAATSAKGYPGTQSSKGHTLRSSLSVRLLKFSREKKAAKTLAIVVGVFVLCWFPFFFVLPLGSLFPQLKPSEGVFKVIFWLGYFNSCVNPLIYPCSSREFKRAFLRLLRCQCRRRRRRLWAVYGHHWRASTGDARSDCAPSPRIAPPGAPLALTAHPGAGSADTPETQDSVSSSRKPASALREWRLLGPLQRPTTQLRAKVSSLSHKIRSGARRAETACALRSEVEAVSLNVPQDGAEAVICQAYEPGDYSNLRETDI
T3 sequence (P43140 whole entry): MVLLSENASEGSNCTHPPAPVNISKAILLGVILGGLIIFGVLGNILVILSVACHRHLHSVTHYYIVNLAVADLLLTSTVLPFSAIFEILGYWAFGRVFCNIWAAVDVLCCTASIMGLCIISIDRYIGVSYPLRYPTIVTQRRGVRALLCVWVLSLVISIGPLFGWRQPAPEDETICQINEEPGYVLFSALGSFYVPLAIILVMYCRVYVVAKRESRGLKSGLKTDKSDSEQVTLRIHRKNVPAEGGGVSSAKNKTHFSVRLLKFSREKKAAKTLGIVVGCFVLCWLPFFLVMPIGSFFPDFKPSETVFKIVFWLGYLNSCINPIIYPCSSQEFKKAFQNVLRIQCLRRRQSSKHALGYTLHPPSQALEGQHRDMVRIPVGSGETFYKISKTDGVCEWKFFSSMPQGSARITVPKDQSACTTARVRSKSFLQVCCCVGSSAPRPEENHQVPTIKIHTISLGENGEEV
Put plainly: The binding affinity at Alpha-1 adrenergic receptor determined using [3H]prazosin. The experiment is classed as protein assay.

Sequence of D(3) dopamine receptor (P35462 whole entry): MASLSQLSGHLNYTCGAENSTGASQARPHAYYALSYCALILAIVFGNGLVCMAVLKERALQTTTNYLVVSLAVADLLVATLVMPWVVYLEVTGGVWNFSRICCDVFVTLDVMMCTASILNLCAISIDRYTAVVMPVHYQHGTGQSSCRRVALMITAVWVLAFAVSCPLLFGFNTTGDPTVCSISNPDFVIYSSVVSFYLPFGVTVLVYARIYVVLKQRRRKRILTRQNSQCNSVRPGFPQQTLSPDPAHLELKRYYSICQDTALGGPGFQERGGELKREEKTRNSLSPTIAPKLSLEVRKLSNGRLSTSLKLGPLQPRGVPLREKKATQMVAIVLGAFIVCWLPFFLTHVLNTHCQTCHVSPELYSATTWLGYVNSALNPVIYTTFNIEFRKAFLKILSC

The term Ki denotes a dissociation constant, usually derived from enzyme kinetics or from competition with a known ligand. A lower Ki goes with tighter binding. Broadly, the IC50 is the concentration that gives 50% inhibition. A low value points to greater potency. Turning to `COc1cccc2c1N1CCN(C)C[C@H]1c1ccccc1C2`, the Ki turned out to be 100 nM at D(3) dopamine receptor, 0.39 nM in experiment [1], 255 nM in experiment [4] and 74 nM in experiment [5]. For the same compound, the IC50 in experiment [2] is 2860 nM; in experiment [3], above 10000 nM.
As to `COc1cccc2c1N1CCN(C)CC1c1ccccc1C2` (racemic), the Ki at D(3) dopamine receptor is 260 nM; in experiment [1], 0.21 nM; in experiment [4] it was 345 nM; in experiment [5] it was 84 nM. Moreover, the IC50 worked out at 1780 nM in experiment [2] and 2900 nM in experiment [3].
`COc1cccc2c1N1CCN(C)C[C@@H]1c1ccccc1C2`: the Ki at D(3) dopamine receptor was 3570 nM; in experiment [1], 0.16 nM; in experiment [4], 800 nM; in experiment [5], 205 nM. Further, the IC50 in experiment [2] turned out to be 1240 nM; in experiment [3], 1650 nM.
